The values that follow come from ChEMBL document CHEMBL3991601, “The target landscape of clinical kinase drugs” (Science, 2017).

Each structure is given as a SMILES string. Activity calls are given as the source filed them. Where only a bound is given, the exact number is not on record here.

Assay [1] deals with Proto-oncogene tyrosine-protein kinase receptor Ret (Homo sapiens, UniProt P07949).
In assay [2] the target is T1, Thyroid hormone receptor-associated protein 3 (Homo sapiens, UniProt Q9Y2W1).
T1 sequence (Q9Y2W1 whole entry): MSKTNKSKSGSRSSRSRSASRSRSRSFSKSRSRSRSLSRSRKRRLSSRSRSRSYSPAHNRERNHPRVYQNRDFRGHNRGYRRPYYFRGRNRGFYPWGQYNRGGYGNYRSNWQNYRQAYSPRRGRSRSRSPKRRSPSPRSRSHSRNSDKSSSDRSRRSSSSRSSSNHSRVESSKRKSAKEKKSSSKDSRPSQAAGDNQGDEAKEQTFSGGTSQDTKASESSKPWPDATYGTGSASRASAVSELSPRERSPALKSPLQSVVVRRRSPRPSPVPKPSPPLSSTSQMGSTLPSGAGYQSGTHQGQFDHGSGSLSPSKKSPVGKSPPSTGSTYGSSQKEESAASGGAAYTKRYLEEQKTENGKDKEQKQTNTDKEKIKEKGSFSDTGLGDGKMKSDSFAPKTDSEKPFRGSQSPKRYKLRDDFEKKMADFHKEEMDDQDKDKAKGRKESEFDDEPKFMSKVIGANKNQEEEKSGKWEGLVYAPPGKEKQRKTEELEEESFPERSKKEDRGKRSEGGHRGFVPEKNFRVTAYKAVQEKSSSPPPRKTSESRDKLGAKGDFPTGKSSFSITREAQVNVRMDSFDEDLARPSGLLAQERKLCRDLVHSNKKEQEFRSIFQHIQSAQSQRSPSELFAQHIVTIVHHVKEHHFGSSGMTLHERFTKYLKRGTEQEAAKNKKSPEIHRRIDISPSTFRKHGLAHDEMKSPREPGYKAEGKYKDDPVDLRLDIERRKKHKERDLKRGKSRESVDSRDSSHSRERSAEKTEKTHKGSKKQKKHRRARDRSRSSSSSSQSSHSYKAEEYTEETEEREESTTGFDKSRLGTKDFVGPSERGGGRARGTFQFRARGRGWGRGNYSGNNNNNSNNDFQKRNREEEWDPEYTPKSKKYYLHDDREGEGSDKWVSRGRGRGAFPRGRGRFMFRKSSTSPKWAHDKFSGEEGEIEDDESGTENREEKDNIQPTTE

Assay [3] has as its target PAS domain-containing serine/threonine-protein kinase (Homo sapiens, UniProt Q96RG2).
Assay [4] deals with Serine/threonine-protein kinase pim-2 (Homo sapiens, UniProt Q9P1W9).
For assay [5], the target named is Serine/threonine-protein kinase N3 (Homo sapiens, UniProt Q6P5Z2).
Chain of Serine/threonine-protein kinase N3 (Q6P5Z2 whole entry): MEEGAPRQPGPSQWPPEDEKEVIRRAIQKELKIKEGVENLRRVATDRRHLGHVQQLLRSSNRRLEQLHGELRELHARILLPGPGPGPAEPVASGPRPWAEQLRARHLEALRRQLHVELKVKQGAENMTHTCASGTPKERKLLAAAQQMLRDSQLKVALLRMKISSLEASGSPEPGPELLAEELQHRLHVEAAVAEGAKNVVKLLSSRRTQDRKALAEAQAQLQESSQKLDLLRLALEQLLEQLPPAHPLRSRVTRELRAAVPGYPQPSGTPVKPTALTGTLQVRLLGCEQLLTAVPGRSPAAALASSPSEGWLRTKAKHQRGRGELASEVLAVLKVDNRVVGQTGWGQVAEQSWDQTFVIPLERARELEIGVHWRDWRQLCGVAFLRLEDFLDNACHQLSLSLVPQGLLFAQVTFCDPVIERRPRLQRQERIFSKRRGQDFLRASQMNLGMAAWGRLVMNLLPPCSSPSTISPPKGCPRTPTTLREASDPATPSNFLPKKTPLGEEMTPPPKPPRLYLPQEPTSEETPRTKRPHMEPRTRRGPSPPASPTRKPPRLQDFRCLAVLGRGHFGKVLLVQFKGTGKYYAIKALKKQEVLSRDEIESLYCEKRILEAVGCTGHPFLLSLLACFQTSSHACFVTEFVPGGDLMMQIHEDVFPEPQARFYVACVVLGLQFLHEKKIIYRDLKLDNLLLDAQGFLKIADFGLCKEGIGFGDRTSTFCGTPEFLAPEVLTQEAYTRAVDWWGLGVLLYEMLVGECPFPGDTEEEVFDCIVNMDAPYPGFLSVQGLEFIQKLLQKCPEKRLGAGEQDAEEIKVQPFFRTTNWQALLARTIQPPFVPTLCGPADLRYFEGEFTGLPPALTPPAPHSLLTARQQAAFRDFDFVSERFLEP
Assay [6] concerns the target DNA topoisomerase 2-alpha (Homo sapiens, UniProt P11388).
Assay [7] addresses High affinity nerve growth factor receptor (Homo sapiens, UniProt P04629).
Assay [8] addresses Membrane-associated progesterone receptor component 1 (Homo sapiens, UniProt O00264).
Assay [9] deals with Glycogen synthase kinase-3 beta (Homo sapiens, UniProt P49841).
Assay [10] has as its target Phosphatidylethanolamine-binding protein 1 (Homo sapiens, UniProt P30086).
In assay [11] the target is T2, Receptor-type tyrosine-protein kinase FLT3 (Homo sapiens, UniProt P36888).
T2 sequence (P36888 whole entry): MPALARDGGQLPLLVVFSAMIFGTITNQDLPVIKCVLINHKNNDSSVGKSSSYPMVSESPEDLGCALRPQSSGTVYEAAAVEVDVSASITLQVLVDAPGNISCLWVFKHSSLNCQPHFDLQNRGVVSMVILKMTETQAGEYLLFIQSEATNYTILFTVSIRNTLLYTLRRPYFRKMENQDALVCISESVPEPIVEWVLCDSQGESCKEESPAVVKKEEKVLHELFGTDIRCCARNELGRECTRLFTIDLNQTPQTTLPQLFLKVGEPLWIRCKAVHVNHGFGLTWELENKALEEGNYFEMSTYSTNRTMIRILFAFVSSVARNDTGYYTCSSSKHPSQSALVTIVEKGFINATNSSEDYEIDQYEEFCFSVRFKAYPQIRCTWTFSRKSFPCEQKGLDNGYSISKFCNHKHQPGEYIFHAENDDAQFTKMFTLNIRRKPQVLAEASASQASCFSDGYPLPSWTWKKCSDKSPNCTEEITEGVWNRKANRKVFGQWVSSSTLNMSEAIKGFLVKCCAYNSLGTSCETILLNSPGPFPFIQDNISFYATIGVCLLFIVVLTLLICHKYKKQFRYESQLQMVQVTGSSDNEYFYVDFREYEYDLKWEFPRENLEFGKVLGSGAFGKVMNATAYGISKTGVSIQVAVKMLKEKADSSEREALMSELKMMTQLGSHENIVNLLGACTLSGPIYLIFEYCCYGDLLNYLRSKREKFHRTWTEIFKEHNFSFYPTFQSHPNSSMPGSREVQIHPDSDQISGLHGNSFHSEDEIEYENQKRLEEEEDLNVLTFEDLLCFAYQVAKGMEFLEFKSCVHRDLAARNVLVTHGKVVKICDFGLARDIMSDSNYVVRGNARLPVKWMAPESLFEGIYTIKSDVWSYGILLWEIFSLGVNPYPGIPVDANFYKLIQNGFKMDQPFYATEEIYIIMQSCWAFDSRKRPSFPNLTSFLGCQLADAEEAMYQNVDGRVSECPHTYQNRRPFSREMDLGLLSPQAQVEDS

The target of assay [12] is Dual specificity protein kinase CLK3 (Homo sapiens, UniProt P49761). In kind it is subcellular, K-562, COLO 205, SK-N-BE(2) and MV-4-11, Cell lysate. Particulars: read-out: Kd apparent.
Assay [13] deals with Mitogen-activated protein kinase 14 (Homo sapiens, UniProt Q16539).
Assay [14] deals with Dual specificity testis-specific protein kinase 1 (Homo sapiens, UniProt Q15569).
Assay [15] has as its target Cell division cycle 7-related protein kinase (Homo sapiens, UniProt O00311).
In a further assay the target is Focal adhesion kinase 1 (Homo sapiens, UniProt Q05397).
The target in assay [16] is Epidermal growth factor receptor (Homo sapiens, UniProt P00533).
Chain of Epidermal growth factor receptor (P00533 whole entry): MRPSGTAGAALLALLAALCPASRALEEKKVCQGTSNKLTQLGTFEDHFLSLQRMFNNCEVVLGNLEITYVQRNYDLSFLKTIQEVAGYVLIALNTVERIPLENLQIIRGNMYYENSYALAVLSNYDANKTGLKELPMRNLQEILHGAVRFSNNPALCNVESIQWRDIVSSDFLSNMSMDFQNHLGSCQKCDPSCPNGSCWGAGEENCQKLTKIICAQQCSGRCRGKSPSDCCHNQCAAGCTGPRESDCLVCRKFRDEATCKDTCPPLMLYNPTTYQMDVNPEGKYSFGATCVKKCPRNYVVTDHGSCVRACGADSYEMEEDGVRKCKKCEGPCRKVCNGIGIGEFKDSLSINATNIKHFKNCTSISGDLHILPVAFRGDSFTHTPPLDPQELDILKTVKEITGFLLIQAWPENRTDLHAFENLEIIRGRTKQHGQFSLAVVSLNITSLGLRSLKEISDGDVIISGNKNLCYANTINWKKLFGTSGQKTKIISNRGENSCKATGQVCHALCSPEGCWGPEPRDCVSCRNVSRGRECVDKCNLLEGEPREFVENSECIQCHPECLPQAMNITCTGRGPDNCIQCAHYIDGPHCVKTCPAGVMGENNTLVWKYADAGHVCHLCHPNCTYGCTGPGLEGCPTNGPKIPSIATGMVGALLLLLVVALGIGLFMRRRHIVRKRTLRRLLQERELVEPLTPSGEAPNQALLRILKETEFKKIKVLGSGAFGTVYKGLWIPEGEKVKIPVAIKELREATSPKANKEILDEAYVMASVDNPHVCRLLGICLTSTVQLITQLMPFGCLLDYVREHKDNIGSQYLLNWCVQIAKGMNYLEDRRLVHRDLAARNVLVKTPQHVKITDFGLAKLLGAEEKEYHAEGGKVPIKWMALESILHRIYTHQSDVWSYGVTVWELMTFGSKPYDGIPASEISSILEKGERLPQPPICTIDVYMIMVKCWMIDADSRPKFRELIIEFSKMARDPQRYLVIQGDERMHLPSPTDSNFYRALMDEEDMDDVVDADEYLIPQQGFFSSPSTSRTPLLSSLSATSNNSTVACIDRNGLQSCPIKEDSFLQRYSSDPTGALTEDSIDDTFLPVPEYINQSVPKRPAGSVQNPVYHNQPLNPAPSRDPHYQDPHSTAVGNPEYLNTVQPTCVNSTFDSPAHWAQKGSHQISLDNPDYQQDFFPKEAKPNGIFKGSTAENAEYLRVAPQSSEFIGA
Note: in the data inactive means no Kd found up to 30 µM.

Chain of DNA topoisomerase 2-alpha (P11388 whole entry): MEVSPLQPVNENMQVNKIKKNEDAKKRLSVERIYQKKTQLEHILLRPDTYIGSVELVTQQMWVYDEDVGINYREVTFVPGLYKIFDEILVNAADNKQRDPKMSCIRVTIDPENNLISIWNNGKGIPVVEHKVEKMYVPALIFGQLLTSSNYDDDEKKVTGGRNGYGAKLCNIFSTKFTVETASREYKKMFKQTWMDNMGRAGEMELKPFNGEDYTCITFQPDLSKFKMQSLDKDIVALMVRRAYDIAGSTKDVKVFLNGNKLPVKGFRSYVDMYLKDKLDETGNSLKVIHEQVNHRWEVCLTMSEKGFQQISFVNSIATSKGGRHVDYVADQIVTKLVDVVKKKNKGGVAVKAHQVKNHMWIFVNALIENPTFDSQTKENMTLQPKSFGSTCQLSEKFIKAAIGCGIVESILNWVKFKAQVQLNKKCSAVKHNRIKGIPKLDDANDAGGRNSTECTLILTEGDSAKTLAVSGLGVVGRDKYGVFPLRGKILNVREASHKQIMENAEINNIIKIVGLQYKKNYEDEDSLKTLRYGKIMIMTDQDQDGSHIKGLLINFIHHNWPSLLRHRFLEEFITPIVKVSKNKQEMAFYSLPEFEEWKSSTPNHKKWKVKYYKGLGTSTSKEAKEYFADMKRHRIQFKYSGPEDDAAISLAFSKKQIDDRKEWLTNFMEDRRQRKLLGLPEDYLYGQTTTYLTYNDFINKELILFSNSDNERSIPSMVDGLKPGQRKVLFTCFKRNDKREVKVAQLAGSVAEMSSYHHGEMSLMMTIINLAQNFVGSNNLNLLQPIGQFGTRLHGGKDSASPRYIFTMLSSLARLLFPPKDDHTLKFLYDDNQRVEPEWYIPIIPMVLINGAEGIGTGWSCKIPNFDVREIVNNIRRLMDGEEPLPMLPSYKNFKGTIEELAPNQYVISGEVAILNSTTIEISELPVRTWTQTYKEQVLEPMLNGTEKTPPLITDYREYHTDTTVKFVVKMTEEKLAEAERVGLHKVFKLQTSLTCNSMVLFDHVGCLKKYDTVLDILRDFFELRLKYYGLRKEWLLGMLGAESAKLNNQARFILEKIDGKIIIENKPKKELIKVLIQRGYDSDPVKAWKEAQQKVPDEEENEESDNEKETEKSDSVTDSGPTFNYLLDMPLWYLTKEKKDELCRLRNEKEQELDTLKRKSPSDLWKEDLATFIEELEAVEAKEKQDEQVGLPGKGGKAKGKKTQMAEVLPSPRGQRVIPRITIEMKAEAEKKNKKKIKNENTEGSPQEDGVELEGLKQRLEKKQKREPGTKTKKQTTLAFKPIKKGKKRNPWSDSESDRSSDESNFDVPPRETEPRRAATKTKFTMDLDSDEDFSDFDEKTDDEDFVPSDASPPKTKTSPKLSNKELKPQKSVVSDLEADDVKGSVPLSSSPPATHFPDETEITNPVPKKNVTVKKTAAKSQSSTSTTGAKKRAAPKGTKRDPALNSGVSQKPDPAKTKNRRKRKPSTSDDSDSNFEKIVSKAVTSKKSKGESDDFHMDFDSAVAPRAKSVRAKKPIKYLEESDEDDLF
Chain of Membrane-associated progesterone receptor component 1 (O00264 whole entry): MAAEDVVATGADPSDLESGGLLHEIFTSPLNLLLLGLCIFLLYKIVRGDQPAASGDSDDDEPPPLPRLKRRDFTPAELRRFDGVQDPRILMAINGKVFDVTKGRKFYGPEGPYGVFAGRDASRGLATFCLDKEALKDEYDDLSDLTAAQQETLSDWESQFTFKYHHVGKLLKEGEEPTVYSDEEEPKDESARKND
Chain of Phosphatidylethanolamine-binding protein 1 (P30086 whole entry): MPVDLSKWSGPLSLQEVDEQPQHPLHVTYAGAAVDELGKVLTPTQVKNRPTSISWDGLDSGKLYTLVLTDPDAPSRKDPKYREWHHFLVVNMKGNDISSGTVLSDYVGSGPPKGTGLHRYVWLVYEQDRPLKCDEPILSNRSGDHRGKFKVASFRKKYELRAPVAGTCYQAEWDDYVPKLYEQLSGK
Chain of High affinity nerve growth factor receptor (P04629 whole entry): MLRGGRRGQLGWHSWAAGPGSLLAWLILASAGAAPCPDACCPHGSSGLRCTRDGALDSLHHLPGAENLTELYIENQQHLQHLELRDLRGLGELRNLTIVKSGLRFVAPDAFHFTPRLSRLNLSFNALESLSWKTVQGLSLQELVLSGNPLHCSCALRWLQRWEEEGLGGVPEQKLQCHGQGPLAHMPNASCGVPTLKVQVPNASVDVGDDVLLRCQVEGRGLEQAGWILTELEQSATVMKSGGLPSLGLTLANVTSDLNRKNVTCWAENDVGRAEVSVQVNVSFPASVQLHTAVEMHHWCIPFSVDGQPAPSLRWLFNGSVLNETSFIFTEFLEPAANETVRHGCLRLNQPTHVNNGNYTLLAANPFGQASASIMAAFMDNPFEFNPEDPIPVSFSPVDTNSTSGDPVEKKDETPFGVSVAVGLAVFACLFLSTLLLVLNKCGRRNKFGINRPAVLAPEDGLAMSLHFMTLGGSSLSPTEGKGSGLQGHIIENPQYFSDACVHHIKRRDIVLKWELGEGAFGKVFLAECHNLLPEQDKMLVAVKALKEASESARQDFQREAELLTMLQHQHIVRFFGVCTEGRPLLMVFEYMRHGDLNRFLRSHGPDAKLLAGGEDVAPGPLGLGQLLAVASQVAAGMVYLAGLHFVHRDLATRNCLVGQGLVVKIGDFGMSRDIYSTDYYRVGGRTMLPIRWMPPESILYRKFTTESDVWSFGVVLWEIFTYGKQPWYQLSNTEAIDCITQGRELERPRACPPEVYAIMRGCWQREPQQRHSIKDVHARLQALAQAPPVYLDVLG

For `O=S(=O)(c1cccc2c(O)nccc12)N1CCCNCC1` [HYDROXYFASUDIL], the Kd in [1], in [2], in [3], in assay [4], in assay [5] and in [6] was > 30 µM (inactive) in each case. For the same compound, the Kd in assay [7], in [8], in [9], in [10], in assay [11] and in [12] was > 30 µM (inactive) each time.

`CN1CCN(c2nc(C3=C(c4c[nH]c5ccccc45)C(=O)NC3=O)c3ccccc3n2)CC1` [SOTRASTAURIN]: the Kd in assay [1], in assay [13], in assay [4], in assay [5], in assay [6] and in [14] was > 30 µM (inactive) in each case. In addition, the Kd was > 30 µM (inactive) in assay [7]; > 30 µM (inactive) in assay [15]; 0.709 µM (active) in assay [9]; > 30 µM (inactive) on Focal adhesion kinase 1; > 30 µM (inactive) in assay [11]; > 30 µM (inactive) in assay [12].

With `COc1cc(Nc2ncc(F)c(Nc3ccc4c(n3)N(COP(=O)(O)O)C(=O)C(C)(C)O4)n2)cc(OC)c1OC` [FOSTAMATINIB], the Kd was 1.15 µM (active) in assay [1]; > 30 µM (inactive) in assay [13]; > 30 µM (inactive) in [3]; > 30 µM (inactive) in [16]; > 30 µM (inactive) in [14]; > 30 µM (inactive) in assay [7]. Further, the Kd in assay [8] was > 30 µM (inactive); in assay [15], > 30 µM (inactive); in assay [9] it was > 30 µM (inactive); in assay [10] it was > 30 µM (inactive); on Focal adhesion kinase 1 it was 5.4 µM (active); in assay [11] it was 0.843 µM (active). In addition, the Kd in [12] is > 30 µM (inactive).

With `Cn1cc(-c2[nH]c3cc(NC(=O)[C@H](N)C4CCCCC4)cc4c3c2C=NNC4=O)cn1`, the Kd in assay [1] is 0.01 µM (active); in [13] it was > 30 µM (inactive); in [3] it was > 30 µM (inactive); in assay [5], > 30 µM (inactive); in [6], > 30 µM (inactive); in assay [14], > 30 µM (inactive). Also, the Kd (in assay [7]; in assay [8]; in [15]; in assay [9]; in assay [10]; on Focal adhesion kinase 1) was > 30 µM (inactive) in each case. In addition, the figures for the Kd in assay [11] and in [12] were 0.05 µM (active) and > 30 µM (inactive), respectively.

For the compound `O=S(=O)(c1cccc2cnccc12)N1CCCNCC1` [FASUDIL], the Kd in assay [2], in assay [3], in assay [6], in assay [14], in [15] and in assay [10] was > 30 µM (inactive) throughout. In [12], the Kd is > 30 µM (inactive).

For the compound `COc1cc2nccc(Oc3ccc(NC(=O)C4(C(=O)Nc5ccc(F)cc5)CC4)cc3)c2cc1OC` [CABOZANTINIB], the Kd is > 30 µM (inactive) in assay [13]; > 30 µM (inactive) in assay [2]; 4.11 µM (active) in assay [7]; > 30 µM (inactive) in assay [8]; > 30 µM (inactive) in assay [15]; > 30 µM (inactive) in assay [9]. Further, the Kd (in assay [10]; at Focal adhesion kinase 1; in [12]) was > 30 µM (inactive) throughout.

Turning to `Cc1c(Cn2c(C)nc3c(C(=O)O)cc(N4CCOCC4)cc32)cccc1C(F)(F)F` [GSK-2636771], the Kd in assay [1], in [13], in assay [2], in assay [16], in [6] and in [14] was > 30 µM (inactive) each time. For the same compound, the Kd (in assay [7]; in assay [8]; in assay [15]; in assay [9]; on Focal adhesion kinase 1; in [11]) was > 30 µM (inactive) throughout. The Kd in [12] was > 30 µM (inactive).

With `C[C@]1(O)C[C@@H](c2nc(-c3ccc4ccc(-c5ccccc5)nc4c3)c3c(N)nccn32)C1` [LINSITINIB], the Kd in assay [2], in assay [3], in assay [5], in assay [14], in assay [8] and in [15] was > 30 µM (inactive) in each case. Also, the Kd in [12] was > 30 µM (inactive).

Turning to `O=C(NC[C@H](O)CO)c1ccncc1Nc1ccc(I)cc1F` [PIMASERTIB], the Kd in assay [1], in [13], in assay [2], in assay [3], in [16] and in assay [5] was > 30 µM (inactive) each time. Also, the Kd in assay [6], in assay [14], in assay [7], in assay [8], in assay [15] and in [9] was > 30 µM (inactive) each time. Also, the Kd (in [10]; at Focal adhesion kinase 1; in assay [11]; in assay [12]) was > 30 µM (inactive) in each case.

Turning to `CC1(COc2ccc3c(c2)ncn3-c2ccc3cccc(N4CCC(N)CC4)c3n2)COC1` [CRENOLANIB], the Kd in [1] is 0.81 µM (active); in assay [13] it was > 30 µM (inactive); in [3], > 30 µM (inactive); in assay [16], > 30 µM (inactive); in assay [5], > 30 µM (inactive); in assay [6] it was > 30 µM (inactive). Also, the Kd in assay [14] was > 30 µM (inactive); in [7], 0.008 µM (active); in assay [15], > 30 µM (inactive); in assay [9], > 30 µM (inactive); in [10], > 30 µM (inactive); on Focal adhesion kinase 1, > 30 µM (inactive). In assay [12], the Kd was > 30 µM (inactive).
